Measurements as given in patent US9447051B2, “Diaminopyrimidines and uses thereof” (AbbVie inc., priority 2012, dated 2016).

Key:
[1] = test system: RSV (Group A, Long Strain); assay: Antiviral (RSV) assay: cytopathetic effect (CPE) protection assay in HEp-2 cells, MTT readout; assay type: cell-based, human respiratory syncytial virus (RSV); conditions: human respiratory syncytial virus, HEp-2, 96 h
Protocol: HEp-2 cells and RSV (Group A, Long Strain) were obtained from the American Type Culture Collection (Manassas, Va.). A cytopathetic effect (CPE) protection assay was performed to determine the ability of a compound to protect the cells from viral infection and thus the CPE induced by viral infection. 96-well plates were first seeded with 3×10^3 HEp-2 cells per well in Dulbecco's modified Eagle's medium (DMEM) containing 10% fetal bovine serum (FBS). One day after the cells were seeded, they were preincubated with serial dilutions of compounds prepared in 100 μL assay medium (DMEM mixed with F12 medium at a 1:1 ratio, supplemented with 2% FBS and 1 mM sodium pyruvate) for 1 hour at 37° C. 100 μL of assay medium containing 0.2 multiplicity of infection (MOI) of RSV was then added to each well of cells. In addition to wells containing infected cells incubated with compounds, each plate also contained replicates of two kinds of controls: (1) Virus control contained cells infected with 0.2 MOI of RSV in assay medium, (2) Uninfected cell control contained cells incubated with assay medium only. After 4 days of incubation at 37° C., the viability of cells was assessed using MTT (Thiazolyl blue tetrazolium bromide, Sigma). A stock solution of MTT, at a concentration of 4 mg/mL in phosphate-buffered saline, was added to all wells at 25 μL per well. Plates were further incubated for 4 hours, and each well was then treated with 50 μL of a solution containing 20% sodium dodecyl sulfate (SDS) and 0.02 N HCl. After an overnight incubation, the plates were measured on a BioTek® microtiter plate reader at wavelengths of 570 nm and 650 nm. The MTT detection is based on the fact that viable (uninfected) cells can reduce the tetrazolium salts into colored formazan products, which can then be quantitated by spectrometry. […] Compounds were tested to determine both their antiviral and toxicity to determine their therapeutic window. Determination of the EC50 and TD50 of these active compounds were repeated one additional time to confirm the window.

[2] = test system: HEp-2 cells; assay: Cytotoxicity (MTT) assay; assay type: cell-based; conditions: Table 2; uninfected HEp-2 cells, 4 days incubation, 50% toxicity dose
Protocol: A cytopathetic effect (CPE) protection assay was performed to determine the ability of a compound to protect the cells from viral infection and thus the CPE induced by viral infection. 96-well plates were first seeded with 3×10^3 HEp-2 cells per well in Dulbecco's modified Eagle's medium (DMEM) containing 10% fetal bovine serum (FBS). One day after the cells were seeded, they were preincubated with serial dilutions of compounds prepared in 100 μL assay medium (DMEM mixed with F12 medium at a 1:1 ratio, supplemented with 2% FBS and 1 mM sodium pyruvate) for 1 hour at 37° C. 100 μL of assay medium containing 0.2 multiplicity of infection (MOI) of RSV was then added to each well of cells. In addition to wells containing infected cells incubated with compounds, each plate also contained replicates of two kinds of controls: (1) Virus control contained cells infected with 0.2 MOI of RSV in assay medium, (2) Uninfected cell control contained cells incubated with assay medium only. After 4 days of incubation at 37° C., the viability of cells was assessed using MTT (Thiazolyl blue tetrazolium bromide, Sigma). A stock solution of MTT, at a concentration of 4 mg/mL in phosphate-buffered saline, was added to all wells at 25 μL per well. Plates were further incubated for 4 hours, and each well was then treated with 50 μL of a solution containing 20% sodium dodecyl sulfate (SDS) and 0.02 N HCl. After an overnight incubation, the plates were measured on a BioTek® microtiter plate reader at wavelengths of 570 nm and 650 nm. The MTT detection is based on the fact that viable (uninfected) cells can reduce the tetrazolium salts into colored formazan products, which can then be quantitated by spectrometry. Based on the spectrometric absorbance of each sample, the percent of protection from CPE, which is an indicator of protection from viral infection, can be calculated for each compound and the 50% effective concentrations (EC50) can be calculated using a nonlinear regression curve fitting equation provided by the GraphPad Prism® 4 software.
Cytotoxicity of the compounds was determined in experiments done in parallel with the antiviral assays. To do this, 100 μL of assay medium was added to the wells of HEp-2 cells pretreated with 100 μL serially diluted compounds as described above. After 4 days of incubation, the viability of the cells was determined by the MTT assay in the same way as detailed in the “Antiviral Assay” method. Results were expressed as 50% toxicity dose (TD50) values.
Compounds were tested to determine both their antiviral and toxicity to determine their therapeutic window. Determination of the EC50 and TD50 of these active compounds were repeated one additional time to confirm the window.

[3] = Table 1, 0.2 MOI RSV, 4 days incubation, protection from CPE
[4] = Table 2, 0.2 MOI RSV, 4 days, determination repeated to confirm window

| EC50 [1, 3] [nM] | EC50 [1, 4] [nM] | Structure (SMILES) | MTT TD50 [2] [µM] |
| --- | --- | --- | --- |
| 2050 | 2050 | Cc1ccccc1CNc1nc(NCc2ccccn2)nc2c1CCC2 [Example 2, N^4-(2-methylbenzyl)-N^2-(pyridin-2-ylmethyl)-6,7-dihydro-5H-cyclopenta[d]pyrimidine-2,4-diamine] | 7.17 |
| 250 | 150 | Cc1nc(NCc2ccccn2)nc(NC2CCCCC2)c1C [Example 1, N^4-cyclohexyl-5,6-dimethyl-N^2-(pyridin-2-ylmethyl)pyrimidine-2,4-diamine] | 23.00 |
| 2790 | 2790 | Cc1cc(NC2CCCCCC2)nc(NCc2ccccn2)n1 [Example 3, N^4-cycloheptyl-6-methyl-N^2-(pyridin-2-ylmethyl)pyrimidine-2,4-diamine] | 8.04 |
| 23500 | 23500 | Cc1cc(NC2CCCCC2)nc(NCc2ccccn2)n1 [Example 4, N^4-cyclohexyl-6-methyl-N^2-(pyridin-2-ylmethyl)pyrimidine-2,4-diamine] | 39.00 |
| 540 | – | Cc1nc(NCc2ccccn2)nc(NC2CCN(C(=O)OC(C)(C)C)CC2)c1C [Example 82, tert-butyl 4-({5,6-dimethyl-2-[(pyridin-2-ylmethyl)amino]pyrimidin-4-yl}amino)piperidine-1-carboxylate] | – |
| > 12000 | – | Cc1ccc(O)c(CNc2nc(C)c(C)c(NC3CCCCC3)n2)n1 [Example 7, 2-({[4-(cyclohexylamino)-5,6-dimethylpyrimidin-2-yl]amino}methyl)-6-methylpyridin-3-ol] | – |
| 240 | – | Cc1nc(NCc2cccnc2)nc(NC2CCCCC2)c1C [Example 6, N^4-cyclohexyl-5,6-dimethyl-N^2-(pyridin-3-ylmethyl)pyrimidine-2,4-diamine] | – |
| 920 | – | Cc1nc(NCc2ccccn2)nc(NC2CCCC2)c1C [Example 29, N^4-cyclopentyl-5,6-dimethyl-N^2-(pyridin-2-ylmethyl)pyrimidine-2,4-diamine] | – |
| 320 | – | Cc1nc(NCc2ccccn2)nc(NC2Cc3ccccc3C2)c1C [Example 46, N^4-(2,3-dihydro-1H-inden-2-yl)-5,6-dimethyl-N^2-(pyridin-2-ylmethyl)pyrimidine-2,4-diamine] | – |
| 5300 | – | Cc1nc(NCc2ccccn2)nc(Nc2ccon2)c1C [Example 95, 5,6-dimethyl-N^4-(1,2-oxazol-3-yl)-N^2-(pyridin-2-ylmethyl)pyrimidine-2,4-diamine] | – |
| 1200 | – | Cc1nc(NCc2ccccn2)nc(N(C)C2CCCCC2)c1C [Example 77, N^4-cyclohexyl-N^4,5,6-trimethyl-N^2-(pyridin-2-ylmethyl)pyrimidine-2,4-diamine] | – |
| 15000 | – | Cc1cc(Nc2nc(NCc3ccccn3)nc(C)c2C)no1 [Example 96, 5,6-dimethyl-N^4-(5-methyl-1,2-oxazol-3-yl)-N^2-(pyridin-2-ylmethyl)pyrimidine-2,4-diamine] | – |
| 40 | – | Cc1nc(NCc2ccccn2)nc(NC2CCCC(C)C2C)c1C (centres unmarked) [Example 41, N^4-(2,3-dimethylcyclohexyl)-5,6-dimethyl-N^2-(pyridin-2-ylmethyl)pyrimidine-2,4-diamine] | – |
| 180 | – | Cc1nc(NCc2ccccn2)nc(NC2CCc3ccccc32)c1C (centres unmarked) [Example 33, N^4-(2,3-dihydro-1H-inden-1-yl)-5,6-dimethyl-N^2-(pyridin-2-ylmethyl)pyrimidine-2,4-diamine] | – |
| 65 | – | Cc1nc(NCc2ccccn2)nc(NC2CCCCC2C)c1C (centres unmarked) [Example 40, 5,6-dimethyl-N^4-(2-methylcyclohexyl)-N^2-(pyridin-2-ylmethyl)pyrimidine-2,4-diamine] | – |

Second part, the molecule before the results:

| Structure (SMILES) | EC50 [1, 3] [nM] | EC50 [1, 4] [nM] | MTT TD50 [2] [µM] |
| --- | --- | --- | --- |
| Cc1nc(NCc2c(C)noc2C)nc(NC2CCCCC2)c1C [Example 23, N^4-cyclohexyl-N^2-[(3,5-dimethyl-1,2-oxazol-4-yl)methyl]-5,6-dimethylpyrimidine-2,4-diamine] | > 10000 | – | – |
| Cc1cccc(Nc2nc(NCc3ccccn3)nc(C)c2C)c1 [Example 69, 5,6-dimethyl-N^4-(3-methylphenyl)-N^2-(pyridin-2-ylmethyl)pyrimidine-2,4-diamine] | 110 | – | – |
| Cc1nc(NCc2ccccn2)nc(Nc2ccc(F)cc2F)c1C [Example 88, N^4-(2,4-difluorophenyl)-5,6-dimethyl-N^2-(pyridin-2-ylmethyl)pyrimidine-2,4-diamine] | 38 | – | – |
| Cc1nc(NCc2ccccn2)nc(Nc2ccc(Cl)cc2)c1C [Example 62, N^4-(4-chlorophenyl)-5,6-dimethyl-N^2-(pyridin-2-ylmethyl)pyrimidine-2,4-diamine] | 94 | – | – |
| Cc1nc(NCc2ccccn2)nc(Nc2cccc(C(F)(F)F)c2)c1C [Example 54, 5,6-dimethyl-N^2-(pyridin-2-ylmethyl)-N^4-[3-(trifluoromethyl)phenyl]pyrimidine-2,4-diamine] | 25 | – | – |
| Cc1nc(NCc2ccccn2)nc(Nc2ccccc2Cl)c1C [Example 66, N^4-(2-chlorophenyl)-5,6-dimethyl-N^2-(pyridin-2-ylmethyl)pyrimidine-2,4-diamine] | 34 | – | – |
| Cc1nc(NCc2ccccn2)nc(NCc2ccc(F)cc2)c1C [Example 97, N^4-(4-fluorobenzyl)-5,6-dimethyl-N^2-(pyridin-2-ylmethyl)pyrimidine-2,4-diamine] | 140 | – | – |
| Cc1nc(NCc2ccccn2)nc(Nc2ccc(F)cc2)c1C [Example 50, N^4-(4-fluorophenyl)-5,6-dimethyl-N^2-(pyridin-2-ylmethyl)pyrimidine-2,4-diamine] | 100 | – | – |
| CCc1ccnc(CNc2nc(C)c(C)c(NC3CCC(F)(F)CC3)n2)c1 [Example 90, N^4-(4,4-difluorocyclohexyl)-N^2-[(4-ethylpyridin-2-yl)methyl]-5,6-dimethylpyrimidine-2,4-diamine] | 510 | – | – |
| Cc1nc(NCc2ccccn2)nc(Nc2cccc(OC(F)(F)F)c2)c1C [Example 53, 5,6-dimethyl-N^2-(pyridin-2-ylmethyl)-N^4-[3-(trifluoromethoxy)phenyl]pyrimidine-2,4-diamine] | 38 | – | – |
| Cc1nc(NCc2ccccn2)nc(Nc2ccccc2OC(F)(F)F)c1C [Example 59, 5,6-dimethyl-N^2-(pyridin-2-ylmethyl)-N^4-[2-(trifluoromethoxy)phenyl]pyrimidine-2,4-diamine] | 30 | – | – |
| Cc1nc(NCc2ccccn2)nc(Nc2ccccc2)c1C [Example 52, 5,6-dimethyl-N^4-phenyl-N^2-(pyridin-2-ylmethyl)pyrimidine-2,4-diamine] | 270 | – | – |
